Measured values as given in publication PMC6407587, “Inhibition potential of phenolic constituents from the aerial parts of Tetrastigma hemsleyanum against soluble epoxide hydrolase and nitric oxide synthase” (Journal of Enzyme Inhibition and Medicinal Chemistry, 2019).

Key:
[1] = tested on: LPS-induced NO production in macrophage RAW 264.7 cells (iNOS); test: Inhibition of LPS-induced NO production in RAW 264.7 macrophages (Griess reaction, measure of iNOS activity); format: cell-based; conditions: 50 µM compound, LPS-stimulated RAW264.7 cells;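 note: cells pretreated with compound for 2 h, then stimulated 24 h with LPS at 500 ng/ml, supernatant nitrite quantified by absorbance at 550 nm against a nitrite standard curve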
[2] = molecular target: T1, sEH (Homo sapiens, UniProt P34913); test: sEH inhibitory activity, fluorescence assay with PHOME substrate; format: biochemical; conditions: for IC50: PHOME substrate, dose-dependent response curve
T1 sequence (P34913 1-555): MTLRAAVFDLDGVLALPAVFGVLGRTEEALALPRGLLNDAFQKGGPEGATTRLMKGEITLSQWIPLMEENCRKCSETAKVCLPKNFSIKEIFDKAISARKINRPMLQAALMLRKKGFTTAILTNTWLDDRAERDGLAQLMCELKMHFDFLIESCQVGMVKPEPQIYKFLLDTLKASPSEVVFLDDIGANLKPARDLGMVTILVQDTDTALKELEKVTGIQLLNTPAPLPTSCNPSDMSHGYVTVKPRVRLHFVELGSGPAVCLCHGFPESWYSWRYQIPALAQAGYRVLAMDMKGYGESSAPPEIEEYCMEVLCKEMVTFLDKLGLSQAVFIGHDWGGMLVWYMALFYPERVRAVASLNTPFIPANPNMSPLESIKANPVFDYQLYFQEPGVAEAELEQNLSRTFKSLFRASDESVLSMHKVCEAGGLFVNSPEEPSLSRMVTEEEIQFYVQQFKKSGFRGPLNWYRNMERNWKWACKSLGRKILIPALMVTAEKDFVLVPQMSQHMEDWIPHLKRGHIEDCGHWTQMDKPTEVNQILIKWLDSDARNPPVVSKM

[3] = tested on: X-box binding protein 1; design: method as in PMID 26475664; conditions: related to ulcerative colitis; cited from earlier work
[4] = tested on: RAW 264.7 cells;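 note: viability gauged by mitochondrial reductase turning MTT into formazan, optical density read at 570 nm, with untreated control cells set as 100% viability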
[5] = molecular target: T1, sEH; test: sEH binding mechanism, Dixon and Lineweaver-Burk plots at different substrate and inhibitor concentrations; format: biochemical; conditions: Dixon / Lineweaver-Burk plots
[6] = 100 µM compound, tested three times

Row | sEH inhibitory activity (in words) [2] | inhibition at 100 µM [2, 6] | Inhibition on sEH at 100 µM (%) [2, 6] | IC50 [2] | Type of sEH inhibition [5] | Structure (SMILES) | inhibition at 50 µM ([1]; Mus musculus, read-out: Inhibition of NO production at 50 µM (%)) | Transcriptional activation of X-box binding protein 1 [3] | Cytotoxicity in RAW 264.7 cells (MTT) [4] | Inhibition of NO production at 50 µM (%) [1]
1 | weak inhibitory activity | 52.3 ± 2.6% |  |  |  | COc1cc(C2c3cc(O)c(OC)cc3CC(CO)C2COC2OC(C)C(O)C(O)C2O)ccc1O (stereo not drawn) [Compound 18] | 32.1% | remarkable transcriptional activation | did not exhibit significant cytotoxicity | 
2 |  |  | 83.8 ± 3.7% | 9.5 ± 0.1 µM | non-competitive | CC(=O)O[C@H]1[C@H](OC[C@H]2O[C@@H](Oc3c(-c4ccc(O)c(O)c4)oc4cc(O)cc(O)c4c3=O)[C@H](O)[C@@H](O)[C@@H]2O)O[C@@H](C)[C@H](O)[C@H]1O [Compound 17] |  |  | did not exhibit significant cytotoxicity | 29.9%
3 |  |  | 95.2 ± 0.2% | 6.2 ± 0.1 µM | non-competitive | C[C@@H]1O[C@@H](OC[C@H]2O[C@@H](Oc3c(-c4ccc(O)c(O)c4)oc4cc(O)cc(O)c4c3=O)[C@H](O)[C@@H](O)[C@@H]2O)[C@H](O)[C@H](O)[C@H]1O [Compound 16] |  |  | did not exhibit significant cytotoxicity | 26.2%
